Results taken from patent US8940754B2, “10′-fluorinated Vinca alkaloids provide enhanced biological activity against MDR cancer cells” (priority 2010, dated 2015).
Where two headings read alike, the source gives them in different places.

Key:
Assay in all cases: cells
L1210 = assay type: cell-based, mouse; conditions: read-out: IC50 (nM) L1210
HCT116/VM46 = assay type: cell-based, human; conditions: read-out: IC50 (nM) HCT116/VM46
HCT116 = assay type: cell-based, human; conditions: read-out: IC50 (nM) HCT116
[1] = Table 1B, C16′-modified vinblastine analogues
[2] = Table 2B, C10′-substituted vinblastines, single evaluations
[3] = Table 2C, side-by-side, multiple examinations with several independent samples
[4] = Table 1A, C16′-modified anhydrovinblastine analogues
[5] = Table 2A, C10′-substituted anhydrovinblastines, single evaluations
[6] = Homo sapiens, HCT-116, Table 1A, C16′-modified anhydrovinblastine analogues
[7] = Mus musculus, L1210, Table 1A, C16′-modified anhydrovinblastine analogues
[8] = Homo sapiens, HCT-116/VM46, Table 1A, C16′-modified anhydrovinblastine analogues

| Compound | IC50 (HCT116; [6]) [nM] | IC50 (L1210; [7]) [nM] | IC50 (HCT116/VM46; [8]) [nM] | IC50 (HCT116; Homo sapiens, HCT-116) [nM] | IC50 (L1210; Mus musculus, L1210) [nM] | IC50 (HCT116/VM46; Homo sapiens, HCT-116/VM46) [nM] | also measured |
| --- | --- | --- | --- | --- | --- | --- | --- |
| CC[C@]1(O)C[C@@H]2CN(CCc3c([nH]c4ccccc34)[C@@](C(=O)OC)(c3cc4c(cc3OC)N(C)[C@H]3[C@@](O)(C(=O)OC)[C@H](OC(C)=O)[C@]5(CC)C=CCN6CC[C@]43[C@@H]65)C2)C1 [Compound 1, Vinblastine, reference compound] | – | – | – | – | – | – | IC50 (L1210; [1]): 6 nM; IC50 (L1210; [2]): 6 nM; IC50 (L1210; [3]): 6 nM; IC50 (HCT116/VM46; [1]): 600 nM; IC50 (HCT116/VM46; [2]): 600 nM; IC50 (HCT116/VM46; [3]): 600 nM |
| CC[C@]1(O)C[C@H]2CN(CCc3c([nH]c4ccccc34)[C@@](C(=O)OC)(c3cc4c(cc3OC)N(C=O)[C@H]3[C@@](O)(C(=O)OC)[C@H](OC(C)=O)[C@]5(CC)C=CCN6CC[C@]43[C@@H]65)C2)C1 [Compound 2, Vincristine, reference compound] | – | – | – | – | – | – | IC50 (HCT116; [3]): 7 nM; IC50 (L1210; [3]): 6 nM; IC50 (HCT116/VM46; [3]): 700 nM |
| CCC1=C[C@@H]2CN(CCc3c([nH]c4ccccc34)[C@@](C(=O)OC)(c3cc4c(cc3OC)N(C)[C@H]3[C@@](O)(C(=O)OC)[C@H](OC(C)=O)[C@]5(CC)C=CCN6CC[C@]43[C@@H]65)C2)C1 [Compound 4a, anhydrovinblastine, reference compound] | – | – | – | – | – | – | IC50 (HCT116; [4]): 75 nM; IC50 (HCT116; [5]): 75 nM; IC50 (L1210; [4]): 65 nM; IC50 (L1210; [5]): 65 nM; IC50 (HCT116/VM46; [4]): 600 nM; IC50 (HCT116/VM46; [5]): 600 nM |
| CCOC(=O)[C@]1(c2cc3c(cc2OC)N(C)C2C(O)(C(=O)OC)[C@H](OC(C)=O)[C@]4(CC)C=CCN5CC[C@]32[C@@H]54)C[C@@H]2C=C(CC)CN(CCc3c1[nH]c1ccccc31)C2 (stereo partly drawn) [Compound 5a] | 640 | 620 | 4100 | – | – | – | – |
| CCOC(=O)[C@]1(c2cc3c(cc2OC)N(C)C2C(O)(C(=O)OC)[C@H](OC(C)=O)[C@]4(CC)C=CCN5CC[C@]32[C@@H]54)C[C@H]2CN(CCc3c1[nH]c1ccccc31)C[C@](O)(CC)C2 (stereo partly drawn) [Compound 5b] | – | – | – | 70 | 60 | 830 | – |
| CCC1=C[C@@H]2CN(CCc3c([nH]c4ccccc34)[C@@](C#N)(c3cc4c(cc3OC)N(C)C3C(O)(C(=O)OC)[C@H](OC(C)=O)[C@]5(CC)C=CCN6CC[C@]43[C@@H]65)C2)C1 (stereo partly drawn) [Compound 6a] | 6100 | 6500 | 6800 | – | – | – | – |
| CC[C@]1(O)C[C@@H]2CN(CCc3c([nH]c4ccccc34)[C@@](C#N)(c3cc4c(cc3OC)N(C)C3C(O)(C(=O)OC)[C@H](OC(C)=O)[C@]5(CC)C=CCN6CC[C@]43[C@@H]65)C2)C1 (stereo partly drawn) [Compound 6b] | – | – | – | 670 | 630 | 7400 | – |
| CCC1=C[C@@H]2CN(CCc3c([nH]c4ccccc34)[C@@](C(N)=O)(c3cc4c(cc3OC)N(C)C3C(O)(C(=O)OC)[C@H](OC(C)=O)[C@]5(CC)C=CCN6CC[C@]43[C@@H]65)C2)C1 (stereo partly drawn) [Compound 7a] | > 10000 | > 10000 | > 10000 | – | – | – | – |
| CC[C@]1(O)C[C@@H]2CN(CCc3c([nH]c4ccccc34)[C@@](C(N)=O)(c3cc4c(cc3OC)N(C)C3C(O)(C(=O)OC)[C@H](OC(C)=O)[C@]5(CC)C=CCN6CC[C@]43[C@@H]65)C2)C1 (stereo partly drawn) [Compound 7b] | – | – | – | > 10000 | > 10000 | > 10000 | – |
| CCC1=C[C@@H]2CN(CCc3c([nH]c4ccccc34)[C@@](C=O)(c3cc4c(cc3OC)N(C)C3C(O)(C(=O)OC)[C@H](OC(C)=O)[C@]5(CC)C=CCN6CC[C@]43[C@@H]65)C2)C1 (stereo partly drawn) [Compound 8a] | 7000 | 6300 | > 10000 | – | – | – | – |
| CC[C@]1(O)C[C@@H]2CN(CCc3c([nH]c4ccccc34)[C@@](CO)(c3cc4c(cc3OC)N(C)C3C(O)(C(=O)OC)[C@H](OC(C)=O)[C@]5(CC)C=CCN6CC[C@]43[C@@H]65)C2)C1 (stereo partly drawn) [Compound 11b] | – | – | – | 5800 | 6500 | > 10000 | – |
